# Data as given in US20230117324A1, “OXAZINE MONOACYLGLYCEROL LIPASE (MAGL) INHIBITORS” (Hoffmann-La Roche Inc., priority 2018, published 2023).
# Target: T1, MAGL (Homo sapiens, UniProt Q99685)
# T1 sequence (Q99685 1-303): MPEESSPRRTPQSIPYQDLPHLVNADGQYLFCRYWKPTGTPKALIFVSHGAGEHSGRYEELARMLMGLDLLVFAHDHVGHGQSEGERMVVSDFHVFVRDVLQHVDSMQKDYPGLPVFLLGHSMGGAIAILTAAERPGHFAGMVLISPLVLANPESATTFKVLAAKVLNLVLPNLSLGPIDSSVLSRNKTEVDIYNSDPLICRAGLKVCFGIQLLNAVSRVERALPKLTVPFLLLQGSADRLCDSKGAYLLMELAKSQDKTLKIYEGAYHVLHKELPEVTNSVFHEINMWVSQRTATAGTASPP
# Test: MAGL inhibition, 2-AG assay (hydrolysis of 2-arachidonoylglycerol, arachidonic acid by mass spectrometry)
# Format: biochemical
# Details: 2-AG assay (footnote [b])
# Description: Alternatively, compounds were profiled for MAGL inhibitory activity by determining the enzymatic activity by following the hydrolysis of the natural substrate 2-arachidonoylglycerol (2-AG) resulting in arachidonic acid, which can be followed by mass spectrometry. This assay is hereinafter abbreviated “2-AG assay”.
# The 2-AG assay was carried out in 384 well assay plates (PP, Greiner Cat #784201) in a total volume of 20 μL. Compound dilutions were made in 100% DMSO (VWR Chemicals 23500.297) in a polypropylene plate in 3-fold dilution steps to give a final concentration range in the assay from 12.5 μM to […]. 0.25 μL compound dilutions (100% DMSO) were added to 9 μL MAGL in assay buffer (50 mM TRIS (GIBCO, 15567-027), 1 mM EDTA (Fluka, 03690-100 mL), 0.01% (v/v) Tween. After shaking, the plate was incubated for 15 min at RT. To start the reaction, 10 μL 2-arachidonoylglycerol in assay buffer was added. The final concentrations in the assay was […] and 8 μM 2-arachidonoylglyerol. After shaking and 30 min incubation at RT, the reaction was quenched by the addition of 40 μL of ACN containing 4 μM of d8-arachidonic acid. The amount of arachidonic acid was traced by an online SPE system (Agilent Rapidfire) coupled to a triple quadrupole mass spectrometer (Agilent 6460). A C18 SPE cartridge (G9205A) was used in an ACN/water liquid setup. The mass spectrometer was operated in negative electrospray mode following the mass transitions 303.1→259.1 for arachidonic acid and 311.1→267.0 for d8-arachidonic acid. The activity of the compounds was calculated based on the ratio of intensities [arachidonic acid/d8-arachidonic acid].
row,IC50,Structure (SMILES)
1,0.5 nM,"O=C1CO[C@H]2CCN(C(=O)N3CC(c4ccc(N5CC6(C5)CC(F)(F)C6)cc4)C3)C[C@H]2N1 [Example 191, (4aR,8aS)-6-[3-[4-(6,6-Difluoro-2-azaspiro[3.3]heptan-2-yl)phenyl]azetidine-1-carbonyl]-4,4a,5,7,8,8a-hexahydropyrido[4,3-b][1,4]oxazin-3-one]"
2,2 nM,"NCCOc1cccc(C(c2ccccc2)C2CCN(C(=O)N3CC[C@@H]4OCC(=O)N[C@@H]4C3)CC2)c1 (stereo partly drawn) [Example 252, (4aR,8aS)-6-[4-[[3-(2-Aminoethoxy)phenyl]-phenyl-methyl]piperidine-1-carbonyl]-4,4a,5,7,8,8a-hexahydropyrido[4,3-b][1,4]oxazin-3-one]"
3,28 nM,"CC(Oc1ccc(C(F)(F)F)cc1Cl)C1CN(C(=O)N2CC[C@@H]3OCC(=O)N[C@@H]3C2)C1 (single isomer, unassigned) [Example 75, (4aR,8aS)-6-(3-(R or S)-(1-(2-chloro-4-(trifluoromethyl)phenoxy)ethyl)azetidine-1-carbonyl)hexahydro-2H-pyrido[4,3-b][1,4]oxazin-3(4H)-one]"
4,58 nM,"O=C1CO[C@H]2CCN(C(=O)N3CCC(N4CC5(CC5)c5cc(Cl)ccc54)CC3)C[C@H]2N1 [Example 265, (4aR,8aS)-6-[4-(5′-Chlorospiro[cyclopropane-1,3′-indoline]-1′-yl)piperidine-1-carbonyl]-4,4a,5,7,8,8a-hexahydropyrido[4,3-b][1,4]oxazin-3-one]"
5,17 nM,"COc1ccc(C(c2ccccn2)C2CCN(C(=O)N3CC[C@@H]4OCC(=O)N[C@@H]4C3)CC2)cc1OC (single isomer, unassigned) [Example 119, (4aR,8aS)-6-[4-[(S or R)-(3,4-dimethoxyphenyl)-(2-pyridyl)methyl]piperidine-1-carbonyl]-4,4a,5,7,8,8a-hexahydropyrido[4,3-b][1,4]oxazin-3-one]"
6,1 nM,"CC(Oc1ccc(C2CN(C(=O)N3CC[C@@H]4OCC(=O)N[C@@H]4C3)C2)cc1)C(F)(F)F (single isomer, unassigned) [Example 246, (4aR,8aS)-6-[3-(R or S)-[4-(2,2,2-Trifluoro-1-methyl-ethoxy)phenyl]azetidine-1-carbonyl]-4,4a,5,7,8,8a-hexahydropyrido[4,3-b][1,4]oxazin-3-one]"
7,2 nM,"O=C1CO[C@H]2CCN(C(=O)N3CC(c4ccc(N5CC(C(F)(F)F)C5)cc4)C3)C[C@H]2N1 [Example 129, (4aR,8aS)-6-(3-(4-(3-(Trifluoromethyl)azetidin-1-yl)phenyl)azetidine-1-carbonyl)hexahydro-2H-pyrido[4,3-b][1,4]oxazin-3(4H)-one]"
8,0.03 nM,"O=C1CO[C@H]2CCN(C(=O)N3CC(c4ccc(-c5ccccc5OC(F)(F)F)cc4)C3)C[C@H]2N1 [Example 121, (4aR,8aS)-6-(3-(2′-(Trifluoromethoxy)-[1,1′-biphenyl]-4-yl)azetidine-1-carbonyl)hexahydro-2H-pyrido[4,3-b][1,4]oxazin-3(4H)-one]"
9,0.1 nM,"Cc1ccc(C(c2ccc(F)cc2)C2CCN(C(=O)N3CC[C@@H]4OCC(=O)N[C@@H]4C3)CC2)cc1 (single isomer, unassigned) [Example 72, (4aR,8aS)-6-(4-((R or S)-(4-Fluorophenyl)(p-tolyl)methyl)piperidine-1-carbonyl)hexahydro-2H-pyrido[4,3-b][1,4]oxazin-3(4H)-one]"
10,4 nM,"O=C1CO[C@H]2CCN(C(=O)N3CC(c4ccc(N5CC(OCC(F)(F)F)C5)cc4)C3)C[C@H]2N1 [Example 172, (4aR,8aS)-6-(3-(4-(3-(2,2,2-Trifluoroethoxy)azetidin-1-yl)phenyl)azetidine-1-carbonyl)hexahydro-2H-pyrido[4,3-b][1,4]oxazin-3(4H)-one]"
11,0.8 nM,"O=C1CO[C@H]2CCN(C(=O)N3CCC(c4cn(Cc5ccccc5)c5ccc(Cl)cc45)C3)C[C@H]2N1 (stereo partly drawn) [Example 209, (4aR,8aS)-6-(3-(1-Benzyl-5-chloro-1H-indol-3-yl)pyrrolidine-1-carbonyl)hexahydro-2H-pyrido[4,3-b][1,4]oxazin-3(4H)-one]"
12,7 nM,"O=C1CO[C@H]2CCN(C(=O)N3CC(c4ccc(N5CCCC5C(F)(F)F)nc4)C3)C[C@H]2N1 (stereo partly drawn) [Example 174, (4aR,8aS)-6-(3-(6-(2-(Trifluoromethyl)pyrrolidin-1-yl)pyridin-3-yl)azetidine-1-carbonyl)hexahydro-2H-pyrido[4,3-b][1,4]oxazin-3(4H)-one]"
13,0.2 nM,"O=C1CO[C@H]2CCN(C(=O)N3CCC(C(c4ccccc4)c4ccc(OCCF)cc4)CC3)C[C@H]2N1 (single isomer, unassigned) [Example 79, (4aR,8aS)-6-[4-[(S or R)-[4-(2-Fluoroethoxy)phenyl]-phenylmethyl]piperidine-1-carbonyl]-4,4a,5,7,8,8a-hexahydropyrido[4,3-b][1,4]oxazin-3-one]"
14,0.4 nM,"O=C1CO[C@H]2CCN(C(=O)N3CC(c4ccc(-c5ccc(Cl)cc5)cc4)C3)C[C@H]2N1 [Example 111, (4aR,8aS)-6-(3-(4′-Chloro-[1,1′-biphenyl]-4-yl)azetidine-1-carbonyl)hexahydro-2H-pyrido[4,3-b][1,4]oxazin-3(4H)-one]"
15,2 nM,"O=C1CO[C@H]2CCN(C(=O)N3CC(c4ccc(N5CCCCC5)cc4)C3)C[C@H]2N1 [Example 196, (4aR,8aS)-6-[3-[4-(1-Piperidyl)phenyl]azetidine-1-carbonyl]-4,4a,5,7,8,8a-hexahydropyrido[4,3-b][1,4]oxazin-3-one]"
16,79 nM,"CC(OC1CN(C(=O)N2CC[C@@H]3OCC(=O)N[C@@H]3C2)C1)c1ccc(C(F)(F)F)cc1 (single isomer, unassigned) [Example 115, (4aR,8aS)-6-(3-(1-(S or R)-4-(Trifluoromethyl)phenyl)ethoxy)azetidine-1-carbonyl)hexahydro-2H-pyrido[4,3-b][1,4]oxazin-3(4H)-one]"
17,1 nM,"Cc1ccc(-c2ccc(C3CN(C(=O)N4CC[C@@H]5OCC(=O)N[C@@H]5C4)C3)cc2)cc1 [Example 144, (4aR,8aS)-6-(3-(4′-Methyl-[1,1′-biphenyl]-4-yl)azetidine-1-carbonyl)hexahydro-2H-pyrido[4,3-b][1,4]oxazin-3(4H)-one]"
18,276 nM,"O=C1CO[C@H]2CCN(C(=O)N3CCC(c4ccc(OC(F)(F)F)cc4)C3)C[C@H]2N1 (stereo partly drawn) [Example 219, (4aR,8aS)-6-[3-[4-(Trifluoromethoxy)phenyl]pyrrolidine-1-carbonyl]-4,4a,5,7,8,8a-hexahydropyrido[4,3-b][1,4]oxazin-3-one]"
19,162 nM,"O=C1CO[C@H]2CCN(C(=O)N3CCC(c4cccc(Br)c4)C3)C[C@H]2N1 (single isomer, unassigned) [Example 228, (4aR,8aS)-6-[(3S or R)-3-(3-Bromophenyl)pyrrolidine-1-carbonyl]-4,4a,5,7,8,8a-hexahydropyrido[4,3-b][1,4]oxazin-3-one]"
20,0.2 nM,"O=C1CO[C@H]2CCN(C(=O)N3CC(c4ccc(-c5ccc(Cl)cc5F)cc4)C3)C[C@H]2N1 [Example 133, (4aR,8aS)-6-[3-[4-(4-Chloro-2-fluoro-phenyl)phenyl]azetidine-1-carbonyl]-4,4a,5,7,8,8a-hexahydropyrido[4,3-b][1,4]oxazin-3-one]"
21,0.1 nM,"O=C1CO[C@H]2CCN(C(=O)N3CC(c4ccc(-c5ccccc5Cl)cc4)C3)C[C@H]2N1 [Example 112, (4aR,8aS)-6-(3-(2′-Chloro-[1,1′-biphenyl]-4-yl)azetidine-1-carbonyl)hexahydro-2H-pyrido[4,3-b][1,4]oxazin-3(4H)-one]"
22,3700 nM,"O=C1CO[C@H]2CCN(C(=O)N3CCN(c4ccc(Br)cc4)CC3)C[C@H]2N1 [Example 168, (4aR,8aS)-6-(4-(4-Bromophenyl)piperazine-1-carbonyl)hexahydro-2H-pyrido[4,3-b][1,4]oxazin-3(4H)-one]"
23,0.5 nM,"O=C1CO[C@H]2CCN(C(=O)N3CC(c4ccc(N5CCC(C(F)(F)F)C5)cc4)C3)C[C@H]2N1 (single isomer, unassigned) [Example 197, (4aR,8aS)-6-(3-(4-((R or S)-3-(Trifluoromethyl)pyrrolidin-1-yl)phenyl)azetidine-1-carbonyl)hexahydro-2H-pyrido[4,3-b][1,4]oxazin-3(4H)-one]"
24,139 nM,"O=C1CO[C@H]2CCN(C(=O)N3CC(c4ccccc4)C3)C[C@H]2N1 [Example 185, (4aR,8aS)-6-(3-Phenylazetidine-1-carbonyl)hexahydro-2H-pyrido[4,3-b][1,4]oxazin-3(4H)-one]"
